# Patent publication US20260216345A1, “M6PR BINDING COMPOUNDS AND CONJUGATES” (Lycia Therapeutics, Inc., priority 2023, published 2026)
# Entries after “also recorded” stand apart in the source; their conditions may differ.
# Legend:
# CI-M6PR [1] = target: T1, CI-M6PR (Homo sapiens, UniProt P11717); test: Human CI-M6PR binding assay (ELISA); parameters: purchased R&D 6418-GR-050; conditions: for binding affinity to M6PR, rank among the conjugates tested: matuzumab conjugates (FIGS. 7A-7F), I-7 at d8 (DAR 8), I-11 at d4 (DAR 4)
# Description: Nunc black solid bottom MaxiSorp plates were allowed to incubate overnight at 4° C. coated with 1 μg/mL of recombinant human CI-M6PR protein (R&D, 6418-GR-050) in 50 μL PBS. The next day, coating was decanted and plates were washed 3× with PBS. Wells were blocked with 350 μL of 3% BSA-PBS for 1 hour at room temperature. […] 50 μL of diluted conjugates were added to the plate and allowed to incubate at room temperature for 2 hours. After incubation, solutions in plate were decanted and washed with 350 μL of 0.05% PBS-Tween20 three times, drying the plate each wash on a clean paper towel. 50 μL of peroxidase AffiniPure Mouse Anti-Human IgG (Jackson Immuno, 209-035-088) diluted in 3% BSA-PBS to […] was added to the plate and allowed to incubate for 1 hour at room temperature in the dark. After incubation, solutions in plate were decanted and washed with 350 μL of 0.05% PBS-Tween20 3 times, drying the plate each wash on a clean paper towel. […] 50 μL of QuantaBlu solution was added to wells and allowed to incubate for 5-10 minutes at room temperature. After incubation, plates were read on a Perkin Elmer EnVision using photometric 340 and Umbelliferone 460 filter sets for excitation and emission, respectively. Data analysis and non-linear curve-fitting was performed using GraphPad Prism.
# Target sequence in this assay (P11717 41-1365 limits assumed): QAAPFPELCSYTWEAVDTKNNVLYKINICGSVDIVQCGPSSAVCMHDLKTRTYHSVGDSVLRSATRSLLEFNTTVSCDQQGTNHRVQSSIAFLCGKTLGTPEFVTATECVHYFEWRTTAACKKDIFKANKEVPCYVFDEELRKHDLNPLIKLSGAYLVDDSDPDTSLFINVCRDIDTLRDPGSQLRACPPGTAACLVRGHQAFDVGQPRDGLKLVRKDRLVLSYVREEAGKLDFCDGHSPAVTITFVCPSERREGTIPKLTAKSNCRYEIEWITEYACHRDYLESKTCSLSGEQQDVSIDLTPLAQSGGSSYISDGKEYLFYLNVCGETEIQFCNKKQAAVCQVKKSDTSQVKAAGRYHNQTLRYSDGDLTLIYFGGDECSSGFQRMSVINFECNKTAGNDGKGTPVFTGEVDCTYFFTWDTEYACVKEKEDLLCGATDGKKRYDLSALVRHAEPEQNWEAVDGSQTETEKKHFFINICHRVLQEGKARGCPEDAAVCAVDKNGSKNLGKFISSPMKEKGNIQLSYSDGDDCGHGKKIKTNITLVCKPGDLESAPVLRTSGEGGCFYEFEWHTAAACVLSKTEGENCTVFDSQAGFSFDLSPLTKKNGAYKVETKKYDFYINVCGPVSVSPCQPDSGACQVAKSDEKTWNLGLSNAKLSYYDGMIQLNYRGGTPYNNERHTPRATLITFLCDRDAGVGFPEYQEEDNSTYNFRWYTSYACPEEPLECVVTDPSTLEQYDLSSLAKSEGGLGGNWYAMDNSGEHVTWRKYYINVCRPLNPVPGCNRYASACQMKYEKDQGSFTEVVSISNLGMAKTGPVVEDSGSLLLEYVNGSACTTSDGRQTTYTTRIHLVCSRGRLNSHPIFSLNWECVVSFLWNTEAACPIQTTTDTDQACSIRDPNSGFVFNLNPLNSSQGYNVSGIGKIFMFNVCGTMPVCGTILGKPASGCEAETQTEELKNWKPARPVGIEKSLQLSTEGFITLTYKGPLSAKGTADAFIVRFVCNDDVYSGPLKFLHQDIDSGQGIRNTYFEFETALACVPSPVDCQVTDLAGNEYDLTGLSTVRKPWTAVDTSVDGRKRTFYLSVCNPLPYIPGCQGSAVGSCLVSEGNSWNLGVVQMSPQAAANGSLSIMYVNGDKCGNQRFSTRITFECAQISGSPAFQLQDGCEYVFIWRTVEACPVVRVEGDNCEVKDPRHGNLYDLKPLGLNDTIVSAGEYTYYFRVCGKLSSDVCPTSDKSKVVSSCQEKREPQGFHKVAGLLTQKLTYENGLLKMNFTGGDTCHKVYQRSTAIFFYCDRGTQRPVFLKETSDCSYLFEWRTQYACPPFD
# Jurkat cells [2] = test: Uptake of IgE-Alexa488 target protein in Jurkat cells; type: cell-based
# Description: The omalizumab conjugates of Example 142 were bound to IgE-Alexa488 (prepared according to Example 144), as follows: equal molar ratios of omalizumab (anti-IgE) conjugate and IgE-Alexa488 were added in tissue culture media for 30 minutes at room temperature. The resulting anti-IgE conjugate:IgE antibody-Alexa488 compositions were added to Jurkat cells (100 k cells/50 ul per well, n=2), and Alexa488 fluorescence levels in the cells were measured at 1 hour by flow cytometry. As the fluorescently labelled target (IgE antibody) accumulates in cells, the fluorescence presents a way to measure total intracellular uptake by cells over time.
# CI-M6PR [3] = target: T1, CI-M6PR; test: CI-M6PR SPR binding assay; conditions: omalizumab conjugates at DAR of about 4; relative to 529 and 552
# Description: The CI-M6PR binding affinities of omalizumab (anti-IgE) conjugates of Table 19 were also assessed via SPR binding assay. […] At equivalent DAR (m) values, the koff rate of the omalizumab (anti-IgE) conjugates was 552>529>570.
# Target sequence in this assay (P11717 41-2491): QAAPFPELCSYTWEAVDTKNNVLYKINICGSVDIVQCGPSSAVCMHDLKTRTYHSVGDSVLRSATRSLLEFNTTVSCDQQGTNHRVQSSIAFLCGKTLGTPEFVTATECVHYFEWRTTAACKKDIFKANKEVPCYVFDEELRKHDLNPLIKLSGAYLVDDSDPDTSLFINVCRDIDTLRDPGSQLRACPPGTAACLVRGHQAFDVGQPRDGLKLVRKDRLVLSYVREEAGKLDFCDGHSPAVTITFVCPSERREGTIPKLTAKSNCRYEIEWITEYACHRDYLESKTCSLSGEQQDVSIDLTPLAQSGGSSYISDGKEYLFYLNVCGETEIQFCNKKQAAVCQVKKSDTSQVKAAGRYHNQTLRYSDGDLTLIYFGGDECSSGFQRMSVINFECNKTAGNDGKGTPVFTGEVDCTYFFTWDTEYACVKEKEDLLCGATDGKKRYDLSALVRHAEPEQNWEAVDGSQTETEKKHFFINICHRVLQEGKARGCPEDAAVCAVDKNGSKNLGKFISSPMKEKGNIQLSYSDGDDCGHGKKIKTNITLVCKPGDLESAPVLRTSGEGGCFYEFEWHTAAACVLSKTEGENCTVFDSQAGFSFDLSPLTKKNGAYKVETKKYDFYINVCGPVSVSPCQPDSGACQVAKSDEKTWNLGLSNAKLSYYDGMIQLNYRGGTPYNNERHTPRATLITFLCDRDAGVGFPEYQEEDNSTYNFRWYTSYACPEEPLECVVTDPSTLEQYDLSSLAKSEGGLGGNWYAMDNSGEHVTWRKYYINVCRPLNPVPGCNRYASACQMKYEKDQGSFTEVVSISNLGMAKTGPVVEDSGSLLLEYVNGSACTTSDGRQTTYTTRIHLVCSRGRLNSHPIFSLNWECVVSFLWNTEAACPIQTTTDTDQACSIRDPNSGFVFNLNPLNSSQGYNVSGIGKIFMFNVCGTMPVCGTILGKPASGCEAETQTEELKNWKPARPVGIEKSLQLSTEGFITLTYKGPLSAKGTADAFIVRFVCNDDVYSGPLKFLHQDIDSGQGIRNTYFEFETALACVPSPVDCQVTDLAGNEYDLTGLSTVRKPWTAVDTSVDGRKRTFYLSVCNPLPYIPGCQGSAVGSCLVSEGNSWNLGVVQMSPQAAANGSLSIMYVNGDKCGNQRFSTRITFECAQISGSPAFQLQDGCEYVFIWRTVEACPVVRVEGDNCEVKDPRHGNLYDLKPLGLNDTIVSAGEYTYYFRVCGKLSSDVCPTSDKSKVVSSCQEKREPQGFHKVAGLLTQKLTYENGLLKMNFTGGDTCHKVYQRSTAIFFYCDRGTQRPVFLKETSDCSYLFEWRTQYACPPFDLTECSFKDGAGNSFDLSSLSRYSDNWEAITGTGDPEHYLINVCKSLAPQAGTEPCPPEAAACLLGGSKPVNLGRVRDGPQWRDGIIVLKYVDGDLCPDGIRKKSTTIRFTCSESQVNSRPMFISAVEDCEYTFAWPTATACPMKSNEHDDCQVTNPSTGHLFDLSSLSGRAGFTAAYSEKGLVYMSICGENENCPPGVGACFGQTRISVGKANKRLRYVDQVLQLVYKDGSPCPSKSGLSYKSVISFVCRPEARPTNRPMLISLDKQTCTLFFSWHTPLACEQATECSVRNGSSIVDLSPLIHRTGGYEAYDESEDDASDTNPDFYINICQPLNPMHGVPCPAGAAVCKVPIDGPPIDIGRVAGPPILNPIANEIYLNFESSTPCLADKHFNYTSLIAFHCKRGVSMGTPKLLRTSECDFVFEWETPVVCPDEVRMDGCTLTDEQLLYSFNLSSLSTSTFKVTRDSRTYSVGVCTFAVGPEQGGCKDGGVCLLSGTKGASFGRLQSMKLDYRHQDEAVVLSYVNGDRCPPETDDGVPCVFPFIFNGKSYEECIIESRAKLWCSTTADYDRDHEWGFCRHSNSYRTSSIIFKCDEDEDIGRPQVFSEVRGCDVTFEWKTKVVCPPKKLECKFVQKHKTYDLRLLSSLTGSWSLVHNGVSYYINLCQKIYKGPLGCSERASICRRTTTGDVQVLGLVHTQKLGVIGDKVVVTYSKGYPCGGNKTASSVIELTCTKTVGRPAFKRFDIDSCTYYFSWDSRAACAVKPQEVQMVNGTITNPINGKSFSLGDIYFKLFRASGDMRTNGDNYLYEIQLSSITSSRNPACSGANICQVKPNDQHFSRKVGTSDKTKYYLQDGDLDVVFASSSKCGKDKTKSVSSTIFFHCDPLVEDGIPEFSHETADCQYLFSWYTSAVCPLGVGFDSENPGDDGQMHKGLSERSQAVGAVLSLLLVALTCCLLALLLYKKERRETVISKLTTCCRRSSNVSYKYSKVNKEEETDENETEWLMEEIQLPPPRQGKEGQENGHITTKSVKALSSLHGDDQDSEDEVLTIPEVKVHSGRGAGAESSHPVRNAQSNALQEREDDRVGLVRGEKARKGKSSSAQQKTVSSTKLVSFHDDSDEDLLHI
# Jurkat cells [4] = test: Uptake of IgG2a-Alexa488 into Jurkat cells; type: cell-based; conditions: anti-IgG2a conjugates, 1 hour and 24 hours
# Description: The anti-IgG2a conjugates were bound to IgG2a-Alexa488, as follows: equal molar ratios of anti-IgG2a and IgG2a-Alexa488 were added in tissue culture media for 30 minutes at room temperature. The resulting anti-IgG2a:IgG2a antibody-Alexa488 compositions were added to Jurkat cells (100 k cells/50 ul per well, n=2), and Alexa488 fluorescence levels were measured (via Alexa488 measurement) at 1 hour and 24 hours by flow cytometry. As the fluorescently labelled target (IgG2a antibody) accumulates in cells, the fluorescence presents a way to measure total intracellular uptake by cells over time.
# [5] = Serum pharmacokinetic analysis of rIgG1 (anti-IgG2a) antibody conjugates; type: in vivo, mice; conditions: intravenous 10 μg/mouse, compared to Compound I-7
# Description: A pharmacokinetic analysis of the rIgG1 (anti-IgG2a) antibody conjugates described in the previous example was performed in mice. In particular, […] mice were intravenously administered each rIgG1 antibody conjugate at 10 μg/mouse (5 mice per group). Blood was collected at 0.5, 1, 2, 6, and 24 hours and serum rIgG1 was analyzed using an ELISA kit (Abcam) according to the manufacturer's instructions. Samples were run across 3 different plates with unconjugated rIgG1 controls (UNLB-anti-IgG2a rIgG1) included on all 3 plates. FIGS. 8A-8C show the serum levels of anti-IgG2a conjugated to Compound 1-7 (dar8) and (dar4) (FIG. 8A), anti-IgG2a conjugated to Compound I-10 and anti-IgG2a conjugated to Compound I-11 (FIG. 8B), and anti-IgG2a conjugated to Compound I-9 and anti-IgG2a conjugated to Compound I-12 (FIG. 8C) over time.
# M6PR (Domains 1-9) = target: T2, M6PR (Domains 1-9) (Homo sapiens, UniProt P11717); test: General M6PR binding assay (fluorescence polarization); conditions: 100 nM M6PR, 1 nM probe, 2 hr incubation
# T2 construct: with 100 nM M6PR (Domains 1-9, R&D Systems) and 1 nM probe; purchased R&D Systems
# Description: M6PR binding was measured in black 96-well plates using a fluorescence polarization assay. A fluorescent probe consisting of a reference M6Pn ligand linked to Cy5 was synthesized. Test compounds were resuspended in DMSO and 3-fold serial dilutions were made at 100× final concentrations. Binding reactions were conducted in 100 μl final volume in 20 mM HEPES (pH 7.5) 100 mM NaCl 0.015% o Tween-20 1% DMSO with 100 nM M6PR (Domains 1-9, R&D Systems) and 1 nM probe. Fluorescence polarization was measured using λex=620 nm, λem=688 nm on an Envision plate reader (Perkin Elmer) after 2 hr incubation time. Dose responses were conducted in duplicate and normalized to the response with DMSO (high) and 1 μM reference compound (low) on each plate. IC50 values were determined by fitting to 4-parameter curves in GraphPad Prism.
# [6] = omalizumab conjugates of Table 15B, Jurkat cells, 1 hour (FIG. 18-21)
# [7] = omalizumab conjugates of Table 19, Jurkat cells (FIG. 23)
# [8] = omalizumab conjugates of Table 15A, Jurkat cells, 1 hour (FIG. 15-17)
# T2 sequence (P11717 41-1365 limits assumed): as the sequence (P11717 41-1365 limits assumed) above
compound,measurement,setting,value
O=C(CCOCCOCCOCCOCCn1cc(CCCCNC(=S)Nc2ccc(O[C@H]3O[C@H](CCP(=O)(O)O)[C@@H](O)[C@H](O)[C@@H]3O)cc2)nn1)Oc1c(F)c(F)c(F)c(F)c1F [520 (I-7)],"binding affinity to M6PR, rank among the conjugates tested",CI-M6PR [1],highest
O=C(CCOCCn1cc(CCO[C@H]2O[C@H](CCP(=O)(O)O)[C@@H](O)[C@H](O)[C@@H]2O)nn1)Oc1c(F)c(F)c(F)c(F)c1F [605 (I-11)],"binding affinity to M6PR, rank among the conjugates tested",CI-M6PR [1],lowest binding affinity
O=C(NCCCCc1cn(CCOCCOCCOCCOCCC(=O)Oc2c(F)c(F)c(F)c(F)c2F)nn1)Nc1ccc(S[C@H]2O[C@H](CCP(=O)(O)O)[C@@H](O)[C@H](O)[C@@H]2O)cc1 [Compound 552],cellular uptake activity of Alexa488 labeled-target IgE,Jurkat cells [2]; [6],comparable activity; also recorded: more activity when at m=6 loading versus m=4 loading
same,cellular uptake activity of Alexa488 labeled-target IgE,Jurkat cells [2]; [7],comparable by less activity
O=C(NCCCCc1cn(CCOCCOCCOCCOCCC(=O)Oc2c(F)c(F)cc(F)c2F)nn1)Nc1ccc(O[C@H]2O[C@H](CCP(=O)(O)O)[C@@H](O)[C@H](O)[C@@H]2O)cc1 [Compound 558],cellular uptake activity of Alexa488 labeled-target IgE,Jurkat cells [2]; [8],"active in this assay, although less active"
O=C(NCCCCc1cn(CCOCCOCCOCCOCCC(=O)Oc2c(F)c(F)c(F)c(F)c2F)nn1)Nc1ccc(S[C@@H]2O[C@H](CCP(=O)(O)O)[C@@H](O)[C@H](O)[C@@H]2O)cc1 [Compound 570],Kd,CI-M6PR [3],superior Kd
same,cellular uptake activity of Alexa488 labeled-target IgE,Jurkat cells [2]; [6],superior activity
same,cellular uptake activity of Alexa488 labeled-target IgE,Jurkat cells [2]; [7],superior activity
CO[C@H]1O[C@H](COCCCCCc2cn(CCOCCOCCOCCOCCC(=O)Oc3c(F)c(F)c(F)c(F)c3F)nn2)[C@@H](O)[C@H](O)[C@@H]1O[C@H]1O[C@H](CCP(=O)(O)O)[C@@H](O)[C@H](O)[C@@H]1O [Compound 659],cellular uptake activity of Alexa488 labeled-target IgE,Jurkat cells [2]; [6],potent and comparable activity
CO[C@H]1C[C@H](c2cn(CCOCCOCCOCCOCCOCCOCCC(=O)Oc3c(F)c(F)c(F)c(F)c3F)nn2)[C@@H](O)[C@H](O)[C@@H]1O[C@H]1O[C@H](CCP(=O)(O)O)[C@@H](O)[C@H](O)[C@@H]1O [Compound 660],cellular uptake activity of Alexa488 labeled-target IgE,Jurkat cells [2]; [6],potent and comparable activity
O=C(NCCCCc1cn(CCOCCOCCOCCOCCC(=O)Oc2c(F)c(F)c(F)c(F)c2F)nn1)Nc1ccc(O[C@H]2C[C@H](CCP(=O)(O)O)[C@@H](O)[C@H](O)[C@@H]2O)cc1 [Compound 665],cellular uptake activity of Alexa488 labeled-target IgE,Jurkat cells [2]; [8],low activity
O=C(CCOCCOCCOCCN(CCOCCOCCOCCn1cc(CCO[C@H]2O[C@H](CCP(=O)(O)O)[C@@H](O)[C@H](O)[C@@H]2O)nn1)CCOCCOCCOCCn1cc(CCO[C@H]2O[C@H](CCP(=O)(O)O)[C@@H](O)[C@H](O)[C@@H]2O)nn1)Oc1c(F)c(F)c(F)c(F)c1F [Compound 716],cellular uptake activity of Alexa488 labeled-target IgE,Jurkat cells [2]; [8],inferior uptake
O=C(CCOCCn1cc(CCO[C@H]2O[C@H](CCP(=O)(O)O)[C@@H](O)[C@H](O)[C@@H]2O)nn1)Oc1c(F)c(F)c(F)c(F)c1F [Compound I-11],intracellular uptake of IgG2a-Alexa488,Jurkat cells [4],sufficiently robust uptake
same,half-life in mice,[5],longer half-life
same,binding affinity to M6PR compared to Compound I-7,CI-M6PR [1]; conjugates of ligand linkers,weaker binding affinity
O=C(NCCCCc1cn(-c2cccnc2)nn1)Nc1ccc(O[C@@H]2O[C@H](CCP(=O)(O)O)[C@@H](O)[C@H](O)[C@@H]2O)cc1 [Compound P1],IC50,M6PR (Domains 1-9),100 to 500 nM
O=C(NCCCCc1cn(-c2cccnc2)nn1)Nc1ccc(O[C@H]2O[C@H](CCP(=O)(O)O)[C@@H](O)[C@H](O)[C@@H]2O)cc1 [Compound P2],IC50,M6PR (Domains 1-9),100 to 500 nM
O=C(NCCCCc1cn(-c2cccnc2)nn1)Nc1ccc(S[C@@H]2O[C@H](CCP(=O)(O)O)[C@@H](O)[C@H](O)[C@@H]2O)cc1 [Compound P3],IC50,M6PR (Domains 1-9),100 to 500 nM
O=C(NCCCCc1cn(-c2cccnc2)nn1)Nc1ccc(S[C@H]2O[C@H](CCP(=O)(O)O)[C@@H](O)[C@H](O)[C@@H]2O)cc1 [Compound P4],IC50,M6PR (Domains 1-9),100 to 500 nM
